Assay results: the NIST ThermoML archive (doi:10.1021/je700670k)

Conditions: Liquid, Vibrating tube method

CCC[N+]1(C)CCCCC1.O=S(=O)([N-]S(=O)(=O)C(F)(F)F)C(F)(F)F
mass density [kg/m3]
Conditions | 293.15 K | 303.15 K | 313.15 K | 323.15 K | 333.15 K | 353.15 K | 393.15 K
100 kPa | 1416.9 | 1407.2 | 1397.4 | 1387.6 | 1377 | 1358.5 | 1322.3
1000 kPa | 1417.6 | 1407.8 | 1398.1 | 1388.3 | 1377.8 | 1359.3 | 1323.2
2000 kPa | 1418.3 | 1408.6 | 1398.9 | 1389.1 | 1378.6 | 1360.2 | 1324.3
3000 kPa | 1419 | 1409.3 | 1399.5 | 1389.9 | 1379.3 | 1361.1 | 1325.3
4000 kPa | 1419.6 | 1410 | 1400.2 | 1390.6 | 1380.1 | 1361.9 | 1326.2
5000 kPa | 1420.3 | 1410.7 | 1401 | 1391.4 | 1380.9 | 1362.8 | 1327.3
7500 kPa | 1422 | 1412.5 | 1402.8 | 1393.2 | 1382.8 | 1364.7 | 1329.7
10000 kPa | 1423.8 | 1414.3 | 1404.7 | 1395.1 | 1384.8 | 1366.7 | 1331.8
15000 kPa | 1427.1 | 1417.7 | 1408.2 | 1398.7 | 1388.5 | 1370.7 | 1336.3
20000 kPa | 1430.4 | 1421.1 | 1411.7 | 1401.9 | 1392.3 | 1374.7 | 1340.7
25000 kPa | 1433.7 | 1424.4 | 1415.1 | 1405 | 1396 | 1378.4 | 1344.8
30000 kPa | 1436.8 | 1427.6 | 1418.4 | 1408.6 | 1399.5 | 1382.1 | 1348.9
35000 kPa | 1439.9 | 1430.7 | 1421.7 | 1412.1 | 1403 | 1385.7 | 1353

CCn1cc[n+](C)c1.O=S(=O)([O-])C(F)(F)F [1-ethyl-3-methylimidazolium trifluoromethanesulfonate]
mass density [kg/m3]
Conditions | 293.15 K | 303.15 K | 313.15 K | 323.15 K | 333.15 K | 353.15 K | 393.15 K
100 kPa | 1379.6 | 1370.2 | 1361.1 | 1352 | 1342.8 | 1325.3 | 1291.1
1000 kPa | 1380 | 1370.7 | 1361.6 | 1352.5 | 1343.3 | 1325.9 | 1291.7
2000 kPa | 1380.6 | 1371.5 | 1362.2 | 1353.2 | 1344 | 1326.6 | 1292.4
3000 kPa | 1381.1 | 1372.1 | 1362.9 | 1353.8 | 1344.6 | 1327.2 | 1293.2
4000 kPa | 1381.8 | 1372.7 | 1363.5 | 1354.4 | 1345.3 | 1327.9 | 1293.9
5000 kPa | 1382.5 | 1373.2 | 1364.1 | 1355.1 | 1346 | 1328.6 | 1294.5
7500 kPa | 1383.9 | 1374.6 | 1365.7 | 1356.7 | 1347.6 | 1330.3 | 1296.4
10000 kPa | 1385.4 | 1376.1 | 1367.3 | 1358.2 | 1349.2 | 1332 | 1298.1
15000 kPa | 1388.2 | 1379 | 1370.2 | 1361.2 | 1352.3 | 1335.3 | 1302
20000 kPa | 1391 | 1381.9 | 1373.1 | 1364.2 | 1355.4 | 1338.5 | 1305.2
25000 kPa | 1393.7 | 1384.7 | 1376 | 1367.2 | 1358.4 | 1341.9 | 1308.7
30000 kPa | 1396.4 | 1387.5 | 1378.8 | 1370.1 | 1361.4 | 1344.8 | 1312
35000 kPa | 1399.1 | 1390.2 | 1381.6 | 1372.9 | 1364.3 | 1347.8 | 1315.3

CCC[N+]1(C)CCCC1.O=S(=O)([N-]S(=O)(=O)C(F)(F)F)C(F)(F)F
mass density [kg/m3]
Conditions | 293.15 K | 303.15 K | 313.15 K | 323.15 K | 333.15 K | 353.15 K | 393.15 K
100 kPa | 1438.6 | 1428.6 | 1418.6 | 1408.7 | 1399 | 1380 | 1343.2
1000 kPa | 1439.3 | 1429.3 | 1419.3 | 1409.4 | 1399.7 | 1380.8 | 1344
2000 kPa | 1440 | 1430 | 1420.1 | 1410.1 | 1400.5 | 1381.7 | 1344.9
3000 kPa | 1440.7 | 1430.8 | 1420.9 | 1411 | 1401.4 | 1382.5 | 1345.8
4000 kPa | 1441.4 | 1431.6 | 1421.7 | 1411.8 | 1402.2 | 1383.4 | 1346.8
5000 kPa | 1442.1 | 1432.2 | 1422.5 | 1412.6 | 1403 | 1384.3 | 1347.8
7500 kPa | 1444 | 1434.1 | 1424.3 | 1414.4 | 1405 | 1386.4 | 1350.2
10000 kPa | 1445.8 | 1435.9 | 1426.3 | 1416.3 | 1407 | 1388.5 | 1352.5
15000 kPa | 1449.2 | 1439.4 | 1429.9 | 1420.1 | 1410.8 | 1392.6 | 1357.1
20000 kPa | 1452.6 | 1443 | 1433.4 | 1423.8 | 1414.6 | 1396.6 | 1361.5
25000 kPa | 1456 | 1446.4 | 1436.9 | 1427.4 | 1418.3 | 1400.4 | 1365.8
30000 kPa | 1459.2 | 1449.7 | 1440.3 | 1431 | 1421.9 | 1404.2 | 1370
35000 kPa | 1462.3 | 1453 | 1443.6 | 1434.4 | 1425.4 | 1407.9 | 1374
